Counter-ions that a name gives are not always drawn. Like-named read-outs stand apart in the source and are kept apart here.
Tests used:
Assay in all cases: MIC by broth microdilution (antibacterial and synergistic activity)
Type in all cases: cell-based
[1] = test system: A. baumannii 19606 (strain 8, OXA-24); conditions: Acinetobacter baumannii, read-out: Antibacterial activity, MIC, inhibitor Alone
Method: (§1) Compounds of the present invention alone, avibactam (AVI) alone, relebactam (REL) alone, meropenem (MER) alone, imipenem (IMI) alone, and as a combination of compounds of the present invention, or avibactam or relebactam with test antibiotic (meropenem or imipenem) was tested for antimicrobial activity by determining minimum inhibitory concentration (MIC, mg/L) using the broth microdilution method according to the guidelines of the Clinical Laboratories and Standards Institute (“Methods for Dilution Antimicrobial Susceptibility Tests for Bacterial that Grow Aerobically”, Approved standard, 7th ed., Clinical and Laboratories Standards Institute (CLSI) Document M7-A8, Wayne, Pa., USA, 2009). Meropenem or imipenem as a test antibiotic compound was dissolved in DMSO, and then diluted in microbial growth medium (Mueller-Hinton Broth II, cation adjusted) resulting in a final concentration range of 0.031-64 mg/L in serial two-fold dilution. In all cases the final DMSO concentration was less than 0.5%. Bacteria were added to 96-well microtitre plates containing the serial two-fold dilutions of the compounds; the final cell density was approximately 5×10^5 colony forming units/mL (CFU/mL). Plates were incubated at 37° C. for 18-24 hours and read visually. The MIC, i.e. the lowest concentration of the test compound that inhibited visible growth of the bacteria, was recorded. The same assay conditions were used when the compounds of present invention alone, avibactam or relebactam alone (as a control), and as a combination of the present invention each compound, or avibactam or relebactam with test meropenem or imipenem antibiotic compound was tested for minimum inhibitory concentration (MIC, mg/L). While test meropenem or imipenem was serially diluted as described above, a constant concentration of avibactam, or relebactam or the present invention each compound of 4 mg/L was used.
(§2) Bacterial strains that were used to evaluate the antimicrobial activity using the MIC determination included but were not limited to E. coli clinical isolate (strain 1, TEM-1), E. coli 8739 (strain 2, CTX-M15), K. pneumoniae clinical isolate (strain 3, SHV-1), K. pneumoniae 700603 (strain 4, KPC-3, TEM-1), E. cloacae clinical isolate (strain 5, P99), E. cloacae 700323 (strain 6, AmpC), A. baumannii clinical isolate (strain 7, OXA-23, OXA-40), A. baumannii 19606 (strain 8, OXA-24), P. aeruginosa clinical isolate (strain 9, KPC-2), P. aeruginosa 9027 (strain 10, AmpC).

[2] = test system: E. coli 8739 (strain 2, CTX-M15); conditions: Escherichia coli, read-out: Antibacterial activity, MIC, inhibitor Alone
Method: as §1, §2

[3] = test system: K. pneumoniae clinical isolate (strain 3, SHV-1); conditions: Klebsiella pneumoniae, read-out: Antibacterial activity, MIC, inhibitor Alone
Method: as §1, §2

[4] = test system: P. aeruginosa clinical isolate (strain 9, KPC-2); conditions: Pseudomonas aeruginosa, read-out: Antibacterial activity, MIC, inhibitor Alone
Method: as §1, §2

[5] = test system: K. pneumoniae 700603 (strain 4, KPC-3, TEM-1); conditions: Klebsiella pneumoniae, read-out: Antibacterial activity, MIC, inhibitor Alone
Method: as §1, §2

[6] = test system: E. cloacae clinical isolate (strain 5, P99); conditions: Enterobacter cloacae, read-out: Antibacterial activity, MIC, inhibitor Alone
Method: as §1, §2

[7] = test system: A. baumannii clinical isolate (strain 7, OXA-23, OXA-40); conditions: Acinetobacter baumannii, read-out: Antibacterial activity, MIC, inhibitor Alone
Method: as §1, §2

[8] = test system: E. cloacae 700323 (strain 6, AmpC); conditions: Enterobacter cloacae, read-out: Antibacterial activity, MIC, inhibitor Alone
Method: as §1, §2

[9] = test system: P. aeruginosa 9027 (strain 10, AmpC); conditions: Pseudomonas aeruginosa, read-out: Antibacterial activity, MIC, inhibitor Alone
Method: as §1, §2

[10] = test system: E. coli clinical isolate (strain 1, TEM-1); conditions: Escherichia coli, read-out: Antibacterial activity, MIC, inhibitor Alone
Method: as §1, §2

[11] = strain 3 (SHV-1), compound alone, no antibiotic
[12] = strain 9 (KPC-2), compound alone, no antibiotic
[13] = strain 4 (KPC-3, TEM-1), compound alone, no antibiotic
[14] = strain 5 (P99), compound alone, no antibiotic
[15] = strain 7 (OXA-23/40), compound alone, no antibiotic
[16] = strain 6 (AmpC), compound alone, no antibiotic
[17] = strain 10 (AmpC), compound alone, no antibiotic
[18] = strain 1 (TEM-1), compound alone, no antibiotic

Measured: MIC

CCS(=O)(=O)NC(=N)[C@@H]1CC[C@@H]2CN1C(=O)N2OS(=O)(=O)[O-].[Na+] [Ex. 8, Sodium (2S,5R)-2-(N-(ethylsulfonyl)carbamimidoyl)-7-oxo-1,6-diazabicyclo[3.2.1]octan-6-yl sulfate]
> 64 µg/mL: [1] | [2] | [3]; [11] | [4]; [12] | [5]; [13] | [6]; [14] | [7]; [15] | [8]; [16] | [9]; [17] | [10]; [18]

COC(=O)CCS(=O)(=O)NC(=N)[C@@H]1CC[C@@H]2CN1C(=O)N2OS(=O)(=O)[O-].[Na+] [Ex. 4, Sodium (2S,5R)-2-(N-((3-methoxy-3-oxopropyl)sulfonyl)carbamimidoyl)-7-oxo-1,6-diazabicyclo[3.2.1]octan-6-ylsulfate]
> 64 µg/mL: [1] | [2] | [3] | [4] | [5] | [6] | [7] | [8] | [9] | [10]

N=C(NS(=O)(=O)c1ccccn1)[C@@H]1CC[C@@H]2CN1C(=O)N2OS(=O)(=O)O [Ex. 12, (2S,5R)-7-Oxo-2-(N-(pyridin-2-ylsulfonyl)carbamimidoyl)-1,6-diazabicyclo[3.2.1]octan-6-yl hydrogen sulfate]
> 64 µg/mL: [1] | [2] | [3]; [11] | [4]; [12] | [5]; [13] | [6]; [14] | [7]; [15] | [8]; [16] | [9]; [17] | [10]; [18]

COc1ccc(S(=O)(=O)NC(=N)[C@@H]2CC[C@@H]3CN2C(=O)N3OS(=O)(=O)O)cn1 [Ex. 21, (2S,5R)-2-(N-((6-methoxypyridin-3-yl)sulfonyl)carbamimidoyl)-7-oxo-1,6-diazabicyclo[3.2.1]octan-6-yl hydrogen sulfate]
> 64 µg/mL: [1] | [2] | [3]; [11] | [4]; [12] | [5]; [13] | [6]; [14] | [7]; [15] | [8]; [16] | [9]; [17] | [10]; [18]

N=C(NS(=O)(=O)c1ccc(C(F)(F)F)cn1)[C@@H]1CC[C@@H]2CN1C(=O)N2OS(=O)(=O)O [Ex. 20, (2S,5R)-7-oxo-2-(N-((5-(trifluoromethyl)pyridin-2-yl)sulfonyl)carbamimidoyl)-1,6-diazabicyclo[3.2.1]octan-6-yl hydrogen sulfate]
> 64 µg/mL: [1] | [2] | [3]; [11] | [4]; [12] | [5]; [13] | [6]; [14] | [7]; [15] | [8]; [16] | [9]; [17] | [10]; [18]

Reference: US12410166B2, “Sulfonylamidine substituted compounds and their use as beta-lactamase inhibitors” (NINGXIA ACADEMY OF AGRICULTURE AND FORESTRY SCIENCES, priority 2021, dated 2025)
